Tests used:
[1] = target: T1, Serine/threonine-protein kinase 4 (Homo sapiens) (UniProt Q13043)
T1 sequence (whole entry): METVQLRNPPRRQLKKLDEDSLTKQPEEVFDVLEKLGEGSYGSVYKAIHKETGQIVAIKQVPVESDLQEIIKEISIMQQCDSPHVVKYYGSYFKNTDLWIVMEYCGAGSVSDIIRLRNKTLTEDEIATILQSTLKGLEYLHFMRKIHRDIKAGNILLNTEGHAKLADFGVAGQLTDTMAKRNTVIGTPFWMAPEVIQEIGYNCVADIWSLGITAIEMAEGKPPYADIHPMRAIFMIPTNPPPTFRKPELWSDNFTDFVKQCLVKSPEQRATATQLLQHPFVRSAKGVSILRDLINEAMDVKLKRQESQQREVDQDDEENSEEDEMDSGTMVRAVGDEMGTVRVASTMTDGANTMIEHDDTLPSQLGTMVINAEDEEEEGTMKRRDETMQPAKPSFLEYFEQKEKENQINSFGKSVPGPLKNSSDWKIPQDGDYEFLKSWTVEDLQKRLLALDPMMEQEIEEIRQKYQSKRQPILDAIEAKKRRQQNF

[2] = target: Serine/threonine-protein kinase PAK 5 (Homo sapiens) (UniProt Q9P286)
[3] = target: cAMP-dependent protein kinase catalytic subunit alpha (Homo sapiens) (UniProt P17612)
[4] = target: T2, Serine/threonine-protein kinase VRK1 (Homo sapiens) (UniProt Q99986)
T2 sequence (whole entry): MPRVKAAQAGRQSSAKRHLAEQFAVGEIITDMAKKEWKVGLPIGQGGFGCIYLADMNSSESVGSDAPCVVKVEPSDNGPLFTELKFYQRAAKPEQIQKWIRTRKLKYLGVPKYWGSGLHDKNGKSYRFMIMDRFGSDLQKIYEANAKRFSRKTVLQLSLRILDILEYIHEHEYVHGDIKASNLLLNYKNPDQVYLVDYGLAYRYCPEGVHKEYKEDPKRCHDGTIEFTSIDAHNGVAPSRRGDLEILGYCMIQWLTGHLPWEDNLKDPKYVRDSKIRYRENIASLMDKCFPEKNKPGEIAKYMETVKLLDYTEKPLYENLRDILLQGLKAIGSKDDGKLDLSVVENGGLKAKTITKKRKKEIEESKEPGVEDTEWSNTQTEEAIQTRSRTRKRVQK

[5] = target: Calcium/calmodulin-dependent protein kinase kinase 2 (Homo sapiens, UniProt Q96RR4)
[6] = target: Serine/threonine-protein kinase VRK2 (Homo sapiens) (UniProt Q86Y07)
[7] = target: Mitogen-activated protein kinase 11 (Homo sapiens, UniProt Q15759)
[8] = target: TRAF2 and NCK-interacting protein kinase (Homo sapiens) (UniProt Q9UKE5)
[9] = target: Glycogen synthase kinase-3 beta (Homo sapiens, UniProt P49841)
[10] = target: Serine/threonine-protein kinase PAK 4 (Homo sapiens) (UniProt O96013)
[11] = target: Casein kinase I isoform gamma-3 (Homo sapiens) (UniProt Q9Y6M4)
[12] = target: Cyclin-dependent kinase 16 (Homo sapiens) (UniProt Q00536)
[13] = target: Calcium/calmodulin-dependent protein kinase type II subunit delta (Homo sapiens) (UniProt Q13557)
[14] = target: Serine/threonine-protein kinase pim-2 (Homo sapiens, UniProt Q9P1W9)
[15] = target: Dual specificity protein kinase CLK2 (Homo sapiens) (UniProt P49760)
[16] = target: T3, Serine/threonine-protein kinase VRK3 (Homo sapiens) (UniProt Q8IV63)
T3 sequence (whole entry): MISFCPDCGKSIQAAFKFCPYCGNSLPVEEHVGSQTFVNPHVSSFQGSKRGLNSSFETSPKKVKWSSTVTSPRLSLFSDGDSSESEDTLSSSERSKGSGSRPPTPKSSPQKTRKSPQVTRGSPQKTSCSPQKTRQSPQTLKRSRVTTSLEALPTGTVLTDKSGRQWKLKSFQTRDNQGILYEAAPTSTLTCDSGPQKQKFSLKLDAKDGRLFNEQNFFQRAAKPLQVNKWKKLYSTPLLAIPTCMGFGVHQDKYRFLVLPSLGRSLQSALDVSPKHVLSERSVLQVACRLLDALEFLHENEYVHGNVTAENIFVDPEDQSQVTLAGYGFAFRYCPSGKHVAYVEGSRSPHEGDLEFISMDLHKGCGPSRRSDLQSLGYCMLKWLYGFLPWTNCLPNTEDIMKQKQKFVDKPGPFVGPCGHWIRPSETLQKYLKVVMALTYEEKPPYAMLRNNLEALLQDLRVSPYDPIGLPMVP

[17] = target: T4, Myotonin-protein kinase (Homo sapiens) (UniProt Q09013)
T4 sequence (whole entry): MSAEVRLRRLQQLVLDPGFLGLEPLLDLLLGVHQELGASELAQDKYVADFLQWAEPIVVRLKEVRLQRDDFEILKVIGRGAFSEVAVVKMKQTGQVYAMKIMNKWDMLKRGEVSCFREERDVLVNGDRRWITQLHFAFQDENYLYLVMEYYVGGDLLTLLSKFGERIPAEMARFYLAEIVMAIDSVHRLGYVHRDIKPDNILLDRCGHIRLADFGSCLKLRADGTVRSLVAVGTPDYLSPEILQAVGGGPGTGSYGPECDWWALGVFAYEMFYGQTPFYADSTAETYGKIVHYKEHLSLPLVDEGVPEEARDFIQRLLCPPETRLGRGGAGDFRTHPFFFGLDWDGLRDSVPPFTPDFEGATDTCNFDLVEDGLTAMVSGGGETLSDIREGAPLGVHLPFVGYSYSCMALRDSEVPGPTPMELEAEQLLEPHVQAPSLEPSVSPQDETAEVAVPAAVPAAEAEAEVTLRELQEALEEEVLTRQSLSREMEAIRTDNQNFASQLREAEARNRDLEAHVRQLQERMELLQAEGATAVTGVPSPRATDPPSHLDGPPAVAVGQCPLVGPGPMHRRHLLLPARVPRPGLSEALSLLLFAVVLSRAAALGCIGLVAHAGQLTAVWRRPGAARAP

[18] = target: Serine/threonine-protein kinase PLK1 (Homo sapiens) (UniProt P53350)
Chain of Serine/threonine-protein kinase PLK1 (Homo sapiens) (P53350 whole entry): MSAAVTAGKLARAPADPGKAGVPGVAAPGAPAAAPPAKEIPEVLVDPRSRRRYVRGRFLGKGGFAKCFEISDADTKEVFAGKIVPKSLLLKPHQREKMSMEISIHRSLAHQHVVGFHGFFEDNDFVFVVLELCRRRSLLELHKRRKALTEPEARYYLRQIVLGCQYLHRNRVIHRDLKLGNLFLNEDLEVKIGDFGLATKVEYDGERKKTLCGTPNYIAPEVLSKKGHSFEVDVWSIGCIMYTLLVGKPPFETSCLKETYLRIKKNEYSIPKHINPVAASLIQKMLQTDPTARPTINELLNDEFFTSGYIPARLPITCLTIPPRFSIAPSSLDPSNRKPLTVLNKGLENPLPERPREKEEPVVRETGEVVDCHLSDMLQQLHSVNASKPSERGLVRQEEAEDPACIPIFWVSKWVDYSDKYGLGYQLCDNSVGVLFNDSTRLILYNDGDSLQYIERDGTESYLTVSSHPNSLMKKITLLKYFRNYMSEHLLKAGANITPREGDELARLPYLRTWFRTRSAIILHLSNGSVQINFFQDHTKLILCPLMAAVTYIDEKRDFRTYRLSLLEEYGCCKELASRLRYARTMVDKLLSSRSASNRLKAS

Chain of Calcium/calmodulin-dependent protein kinase type II subunit delta (Homo sapiens) (Q13557 whole entry): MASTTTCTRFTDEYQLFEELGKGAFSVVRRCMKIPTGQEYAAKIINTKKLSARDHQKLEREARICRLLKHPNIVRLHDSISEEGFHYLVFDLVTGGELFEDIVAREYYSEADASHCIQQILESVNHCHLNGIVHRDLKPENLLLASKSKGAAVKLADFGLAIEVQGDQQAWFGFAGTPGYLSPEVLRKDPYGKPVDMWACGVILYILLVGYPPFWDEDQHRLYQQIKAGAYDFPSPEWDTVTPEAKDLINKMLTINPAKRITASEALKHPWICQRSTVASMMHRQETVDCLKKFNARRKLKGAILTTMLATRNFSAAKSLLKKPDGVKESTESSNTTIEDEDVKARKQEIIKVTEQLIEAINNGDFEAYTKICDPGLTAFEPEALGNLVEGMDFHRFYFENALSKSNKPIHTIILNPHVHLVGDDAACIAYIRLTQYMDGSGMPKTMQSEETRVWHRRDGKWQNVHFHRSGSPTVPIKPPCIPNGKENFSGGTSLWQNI
Chain of Serine/threonine-protein kinase PAK 4 (Homo sapiens) (O96013 whole entry, looked up, canonical isoform): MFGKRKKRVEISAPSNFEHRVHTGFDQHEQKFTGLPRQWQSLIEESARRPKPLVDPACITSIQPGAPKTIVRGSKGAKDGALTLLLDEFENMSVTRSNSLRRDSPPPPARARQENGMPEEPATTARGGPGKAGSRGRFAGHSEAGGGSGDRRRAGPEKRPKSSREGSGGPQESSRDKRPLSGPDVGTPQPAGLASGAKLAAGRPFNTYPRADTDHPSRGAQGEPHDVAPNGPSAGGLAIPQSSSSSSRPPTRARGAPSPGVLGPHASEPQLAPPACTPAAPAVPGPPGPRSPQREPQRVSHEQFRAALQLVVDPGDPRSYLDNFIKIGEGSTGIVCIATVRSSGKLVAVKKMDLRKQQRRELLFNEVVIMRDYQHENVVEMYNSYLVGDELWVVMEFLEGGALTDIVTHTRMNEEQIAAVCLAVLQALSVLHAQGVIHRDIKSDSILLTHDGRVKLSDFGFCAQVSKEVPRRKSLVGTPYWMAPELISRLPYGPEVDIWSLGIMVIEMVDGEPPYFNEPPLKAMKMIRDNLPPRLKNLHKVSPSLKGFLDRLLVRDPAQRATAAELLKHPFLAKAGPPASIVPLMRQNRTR
Chain of Serine/threonine-protein kinase VRK2 (Homo sapiens) (Q86Y07 whole entry): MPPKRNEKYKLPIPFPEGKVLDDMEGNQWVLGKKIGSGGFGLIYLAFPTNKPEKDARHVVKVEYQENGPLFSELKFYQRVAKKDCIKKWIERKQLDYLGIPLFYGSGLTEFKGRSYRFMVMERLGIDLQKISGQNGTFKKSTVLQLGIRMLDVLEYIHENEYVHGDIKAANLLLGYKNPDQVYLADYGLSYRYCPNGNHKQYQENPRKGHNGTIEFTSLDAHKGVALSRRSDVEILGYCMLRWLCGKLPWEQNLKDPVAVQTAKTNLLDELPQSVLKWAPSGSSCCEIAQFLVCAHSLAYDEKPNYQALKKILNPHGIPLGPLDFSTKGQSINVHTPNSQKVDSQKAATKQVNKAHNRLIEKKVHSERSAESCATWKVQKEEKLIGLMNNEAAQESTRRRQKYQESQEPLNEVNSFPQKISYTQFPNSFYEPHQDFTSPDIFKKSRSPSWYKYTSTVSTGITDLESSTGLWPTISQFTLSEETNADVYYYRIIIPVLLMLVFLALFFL
Chain of Cyclin-dependent kinase 16 (Homo sapiens) (Q00536 whole entry): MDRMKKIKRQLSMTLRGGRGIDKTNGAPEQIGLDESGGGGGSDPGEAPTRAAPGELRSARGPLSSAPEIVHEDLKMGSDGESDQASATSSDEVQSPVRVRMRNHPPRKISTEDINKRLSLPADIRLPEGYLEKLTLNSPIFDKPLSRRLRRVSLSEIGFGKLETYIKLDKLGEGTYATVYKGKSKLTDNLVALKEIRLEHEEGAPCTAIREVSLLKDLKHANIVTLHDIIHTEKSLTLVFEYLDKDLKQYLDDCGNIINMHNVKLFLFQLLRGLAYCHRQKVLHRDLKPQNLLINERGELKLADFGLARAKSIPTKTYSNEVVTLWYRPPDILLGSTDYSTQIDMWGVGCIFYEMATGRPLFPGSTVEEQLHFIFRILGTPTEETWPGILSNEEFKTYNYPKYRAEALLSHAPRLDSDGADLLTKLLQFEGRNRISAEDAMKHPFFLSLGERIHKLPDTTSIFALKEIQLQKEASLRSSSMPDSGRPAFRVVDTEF
Chain of Mitogen-activated protein kinase 11 (Q15759 whole entry): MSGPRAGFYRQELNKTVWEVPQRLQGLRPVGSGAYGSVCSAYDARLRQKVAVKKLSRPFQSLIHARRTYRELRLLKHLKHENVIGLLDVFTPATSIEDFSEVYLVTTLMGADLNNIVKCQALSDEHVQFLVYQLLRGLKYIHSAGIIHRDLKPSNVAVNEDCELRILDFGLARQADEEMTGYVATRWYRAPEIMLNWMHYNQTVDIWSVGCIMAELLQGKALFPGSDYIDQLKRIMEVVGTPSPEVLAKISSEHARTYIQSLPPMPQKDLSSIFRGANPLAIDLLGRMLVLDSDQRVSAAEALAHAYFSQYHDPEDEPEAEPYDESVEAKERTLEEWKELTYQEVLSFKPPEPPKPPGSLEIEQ
Chain of Calcium/calmodulin-dependent protein kinase kinase 2 (Q96RR4 2-588 limits assumed): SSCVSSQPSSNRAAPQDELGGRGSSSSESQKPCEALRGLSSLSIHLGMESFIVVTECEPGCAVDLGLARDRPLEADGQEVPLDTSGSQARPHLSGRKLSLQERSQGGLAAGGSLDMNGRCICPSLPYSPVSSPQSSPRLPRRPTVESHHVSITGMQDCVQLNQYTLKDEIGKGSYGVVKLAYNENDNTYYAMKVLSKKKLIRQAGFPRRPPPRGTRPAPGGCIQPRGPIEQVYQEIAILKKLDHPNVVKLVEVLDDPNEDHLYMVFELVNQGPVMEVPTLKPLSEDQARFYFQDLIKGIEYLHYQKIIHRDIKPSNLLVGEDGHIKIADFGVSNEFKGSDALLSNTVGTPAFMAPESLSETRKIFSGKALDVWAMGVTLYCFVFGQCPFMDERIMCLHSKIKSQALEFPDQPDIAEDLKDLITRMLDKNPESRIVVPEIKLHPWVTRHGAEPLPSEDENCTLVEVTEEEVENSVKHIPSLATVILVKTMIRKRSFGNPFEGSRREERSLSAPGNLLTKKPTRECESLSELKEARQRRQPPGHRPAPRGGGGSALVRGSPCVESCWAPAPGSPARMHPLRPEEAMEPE
Chain of Casein kinase I isoform gamma-3 (Homo sapiens) (Q9Y6M4 whole entry, looked up, canonical isoform): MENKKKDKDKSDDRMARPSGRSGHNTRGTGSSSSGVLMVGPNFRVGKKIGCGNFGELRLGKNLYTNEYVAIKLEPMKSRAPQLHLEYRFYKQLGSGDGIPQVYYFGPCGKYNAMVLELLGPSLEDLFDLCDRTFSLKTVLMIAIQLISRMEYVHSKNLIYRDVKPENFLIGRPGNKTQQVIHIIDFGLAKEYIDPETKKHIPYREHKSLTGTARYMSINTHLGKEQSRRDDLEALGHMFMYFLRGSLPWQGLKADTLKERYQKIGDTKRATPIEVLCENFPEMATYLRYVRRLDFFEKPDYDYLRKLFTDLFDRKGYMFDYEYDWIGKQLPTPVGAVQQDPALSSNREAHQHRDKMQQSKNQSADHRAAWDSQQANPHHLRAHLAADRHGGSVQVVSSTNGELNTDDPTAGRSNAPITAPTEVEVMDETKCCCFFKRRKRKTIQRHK
Chain of Glycogen synthase kinase-3 beta (P49841 whole entry, looked up): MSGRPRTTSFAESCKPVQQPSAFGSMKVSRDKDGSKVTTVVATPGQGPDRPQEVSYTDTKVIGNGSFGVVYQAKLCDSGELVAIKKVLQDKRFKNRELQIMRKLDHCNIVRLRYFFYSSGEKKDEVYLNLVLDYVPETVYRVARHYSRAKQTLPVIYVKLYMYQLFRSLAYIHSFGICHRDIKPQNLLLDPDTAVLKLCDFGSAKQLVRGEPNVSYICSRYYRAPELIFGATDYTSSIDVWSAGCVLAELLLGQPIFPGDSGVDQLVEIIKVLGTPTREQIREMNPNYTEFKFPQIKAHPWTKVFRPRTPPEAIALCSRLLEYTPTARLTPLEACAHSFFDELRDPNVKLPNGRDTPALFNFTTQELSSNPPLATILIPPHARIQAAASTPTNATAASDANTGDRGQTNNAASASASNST
Chain of Serine/threonine-protein kinase pim-2 (Q9P1W9 whole entry, looked up): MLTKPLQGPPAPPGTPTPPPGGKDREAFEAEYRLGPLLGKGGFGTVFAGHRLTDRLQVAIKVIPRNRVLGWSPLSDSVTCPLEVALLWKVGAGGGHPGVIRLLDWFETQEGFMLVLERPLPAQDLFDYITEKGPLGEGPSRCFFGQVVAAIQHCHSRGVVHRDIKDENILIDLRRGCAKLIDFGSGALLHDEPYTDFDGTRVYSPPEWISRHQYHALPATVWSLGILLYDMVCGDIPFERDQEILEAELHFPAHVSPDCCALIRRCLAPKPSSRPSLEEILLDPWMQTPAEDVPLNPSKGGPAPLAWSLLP

Row | Structure (SMILES) | ΔTm [1] | ΔTm [2] | ΔTm [3] | ΔTm [4] | ΔTm [5] | ΔTm [6] | ΔTm [7] | ΔTm [8] | ΔTm [9] | ΔTm [10] | ΔTm [11] | ΔTm [12] | ΔTm [13] | ΔTm [14] | ΔTm [15] | ΔTm [16] | ΔTm [17] | ΔTm [18]
1 | COc1ccc(S(=O)(=O)N(CCO)c2ccccc2CN(C)C/C=C/c2ccc(Cl)cc2)cc1 | -0.2 °C | -0.4 °C | -4.1 °C | 0 °C | 0 °C | -0.3 °C | 0.2 °C | 1.3 °C | 0 °C | -0.1 °C | 0 °C | -0.6 °C | -1.2 °C | 0.6 °C | -0.3 °C | -0.6 °C | -0.7 °C | -0.2 °C
2 | O=C(O)c1cc(N(Cc2ccccc2O)Cc2cc(O)ccc2O)ccc1O [LAVENDUSTIN A] | 0.5 °C | -0.5 °C | 1.2 °C | 0.3 °C | 0.5 °C | -0.6 °C | 0.3 °C | 0 °C | -0.1 °C | 0.1 °C | 0.8 °C | 0 °C | 0.3 °C | 1.1 °C | 0.5 °C | 0.7 °C | 0.9 °C | 0.9 °C
3 | C=CNC#N | 1.9 °C | 0.5 °C | 1.6 °C | 1 °C | 0.9 °C | 0.2 °C | -0.1 °C | 0.1 °C | 0.5 °C | 1.8 °C | 0.8 °C | 0.4 °C | 0.7 °C | 0.3 °C | 0.6 °C | 0.9 °C | 1.3 °C | 0.1 °C
4 | CCN(CC)CCNC(=O)c1c(C)[nH]c(/C=C2\C(=O)Nc3ccc(Cl)cc32)c1C [SU-11652] | 10.2 °C | 4.7 °C | 2 °C | 0.6 °C | 7.9 °C | 0.7 °C | -0.4 °C | 8.3 °C | 3.8 °C | 6.4 °C | 3.8 °C | 3.5 °C | 2.3 °C | 2.3 °C | 5.8 °C | 0.3 °C | 2.9 °C | 0.5 °C
5 | NC1=N/C(=C2/CCNC(=O)c3[nH]ccc32)C(=O)N1 [DEBROMOHYMENIALDISINE] | 2.6 °C | 0.2 °C | 0 °C | 1.3 °C | 1.4 °C | 0.7 °C | -0.4 °C | 1.6 °C | 5 °C | 0.9 °C | 2.4 °C | 0 °C | 0.1 °C | 2.5 °C | 3.7 °C | 0.5 °C | 2.3 °C | 2.4 °C
6 | O=C1Nc2ccccc2/C1=C\c1ccc[nH]1 | 7.7 °C | 0.7 °C | 1.7 °C | 0.3 °C | 4.7 °C | 3.4 °C | 0.3 °C | 6.2 °C | 3.3 °C | 1.2 °C | 1.8 °C | 1.7 °C | -0.5 °C | 0.8 °C | 2.1 °C | 0.1 °C | -0.6 °C | -0.6 °C
7 | Cc1cc(C=C2C(=O)C=CC2=O)cc(C)c1O | 0.8 °C | 0.1 °C | 0.5 °C | -3.1 °C | -1.4 °C | 0.2 °C | 2.3 °C | -4.1 °C | -2.9 °C | 0.7 °C | -0.1 °C | 2.2 °C | 1.1 °C | -5.7 °C | -0.8 °C | -0.3 °C | 0.3 °C | 0.6 °C
8 | Nc1cccc(-c2cc3c(Oc4cccc(O)c4)ncnc3[nH]2)c1 | 5.1 °C | 1.7 °C | -0.6 °C | 0.8 °C | 1.4 °C | 0.5 °C | 5.4 °C | -0.4 °C | 7.6 °C | 2.8 °C | 1 °C | 0.1 °C | 0.1 °C | 0.8 °C | 0.4 °C | 2.2 °C | 2.5 °C | 4.4 °C
9 | COc1ccc2c(c1)/C(=C/c1cnc[nH]1)C(=O)N2 [SU-9516] | 8.1 °C | 1.2 °C | 1 °C | 0.5 °C | 2.8 °C | 0.7 °C | 0.8 °C | 5.7 °C | 8.7 °C | 1.8 °C | 0.5 °C | 3.3 °C | -0.5 °C | 1.7 °C | 3.2 °C | 0.3 °C | 0.8 °C | 0.7 °C
10 | Nc1n[nH]c2nc3ccccc3nc12 [QUINOXALINE1] | 0.8 °C | 0.2 °C | 0.6 °C | 0.2 °C | 0.2 °C | 0.7 °C | 1 °C | 0.7 °C | 2.2 °C | -0.3 °C | 0.4 °C | -0.1 °C | -0.1 °C | 1.3 °C | 1.4 °C | 0.4 °C | -0.1 °C | 0.3 °C
11 | Brc1c(Br)c(Br)c2[nH]nnc2c1Br [TETRABROMOBENZOTRIAZOLE] | 3.3 °C | 0.2 °C | 0.6 °C | -1.5 °C | -0.5 °C | -0.5 °C | 0.8 °C | -0.8 °C | 2.4 °C | -0.1 °C | -0.3 °C | -0.5 °C | -0.7 °C | 4.2 °C | 2.4 °C | -1.2 °C | 1.1 °C | 2.3 °C

From ChEMBL document CHEMBL1145498, “A systematic interaction map of validated kinase inhibitors with Ser/Thr kinases” (Proc Natl Acad Sci U S A, 2007)
